These are literature values, as cited in US5700484A, “Sustained release microparticulate caffeine formulation” (Nestec S.A., priority 1996, dated 1997).

The structures appear in SMILES notation.

For this data set the following is noted: 350 mg caffeine oral, aqueous solution.

As to `Cn1c(=O)c2c(ncn2C)n(C)c1=O` [caffeine, 1,3,7-trimethyl xanthine], the maximum plasma level entry was “approximately 8.3 μg/ml”.
